Tests used:
Assay type in all cases: in vivo
cocklebur [1] = experiment: Herbicidal activity test against upland field weeds (foliar treatment test); parameters: key to Foliar treatment herbicidal activity, Cocklebur: 0 (no control); 100 (complete control); settings: 50 g ai/ha, scale 0-100; for pest or weed control at 50 g/ha: Xanthium strumarium
In short: (§1)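 Greenhouse-grown plants (30±5 °C, 14/10 h light/dark) foliar hand-sprayed with compound in 50% acetone, 0.1% Tween-20 at 50 or 75 g a.i./ha. Control visually scored 0 (none) to 100 (complete) versus untreated after 14 days, or 21 days if needed.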

crabgrass [2] = experiment: Herbicidal activity test against upland field weeds (soil treatment test); parameters: key to Soil treatment herbicidal activity, Crabgrass: 0 (no control); 100 (complete control); settings: 50 g ai/ha, scale 0 (no control) to 100 (complete control); for pest or weed control at 50 g/ha: Digitaria sanguinalis
In short: (§2)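 Pre-emergence soil surface spray, day after sowing, into sandy loam pots with fertilizer; compounds at 50 or 75 g a.i./ha in 50% acetone, 0.1% Tween-20. Greenhouse at 30±5 °C, 14/10 h light/dark; visual control rated 0–100 against untreated after 14 days (21 if needed).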

fall panicum [3] = experiment: as above; parameters: key to Soil treatment herbicidal activity, Fall panicum: 0 (no control); 100 (complete control); settings: 50 g ai/ha, scale 0 (no control) to 100 (complete control); for pest or weed control at 50 g/ha: Panicum dichotomiflorum
In short: as §2

sorghum [4] = experiment: as above; parameters: key to Soil treatment herbicidal activity, Sorghum: 0 (no control); 100 (complete control); settings: 50 g ai/ha, scale 0 (no control) to 100 (complete control); for plant injury at 50 g/ha: Sorghum
In short: as §2

velvetleaf [5] = experiment: Herbicidal activity test against upland field weeds (foliar treatment test); parameters: key to Foliar treatment herbicidal activity, velvet leaf: 0 (no control); 100 (complete control); settings: 50 g ai/ha; for pest or weed control at 50 g/ha: Abutilon theophrasti, scale 0-100, read-out: Foliar treatment herbicidal activity, velvet leaf
In short: as §1

sorghum [6] = experiment: as above; parameters: key to Foliar treatment herbicidal activity, Sorghum: 0 (no control); 100 (complete control); settings: 50 g ai/ha, scale 0-100; for plant injury at 50 g/ha: Sorghum
In short: as §1

quack grass = experiment: as above; parameters: key to Foliar treatment herbicidal activity, quack grass: 0 (no control); 100 (complete control); settings: 50 g ai/ha, scale 0-100
In short: as §1

barnyard grass [7] = experiment: as above; parameters: key to Foliar treatment herbicidal activity, barnyard grass: 0 (no control); 100 (complete control); settings: 50 g ai/ha, scale 0-100; for pest or weed control at 50 g/ha: Echinochloa crus-galli
In short: as §1

bindweed [8] = experiment: as above; settings: 50 g ai/ha, scale 0-100
In short: as §1

bindweed [9] = experiment: Herbicidal activity test against upland field weeds (soil treatment test); parameters: key to Soil treatment herbicidal activity, Bindweed: 0 (no control); 100 (complete control); settings: 50 g ai/ha, scale 0 (no control) to 100 (complete control)
In short: as §2

crabgrass [10] = experiment: Herbicidal activity test against upland field weeds (foliar treatment test); parameters: key to Foliar treatment herbicidal activity, Crabgrass: 0 (no control); 100 (complete control); settings: 50 g ai/ha, scale 0-100; for pest or weed control at 50 g/ha: Digitaria sanguinalis
In short: as §1

indian jointvetch [11] = experiment: Herbicidal activity test against upland field weeds (soil treatment test); parameters: key to Soil treatment herbicidal activity, Indian jointvetch: 0 (no control); 100 (complete control); settings: 50 g ai/ha, scale 0 (no control) to 100 (complete control)
In short: as §2

velvetleaf [12] = experiment: as above; parameters: key to Soil treatment herbicidal activity, velvet leaf: 0 (no control); 100 (complete control); settings: 50 g ai/ha, scale 0 (no control) to 100 (complete control)
In short: as §2

indian jointvetch [13] = experiment: Herbicidal activity test against upland field weeds (foliar treatment test); parameters: key to Foliar treatment herbicidal activity, Indian jointvetch: 0 (no control); 100 (complete control); settings: 50 g ai/ha, scale 0-100
In short: as §1

barnyard grass [14] = experiment: Herbicidal activity test against upland field weeds (soil treatment test); parameters: key to Soil treatment herbicidal activity, barnyard grass: 0 (no control); 100 (complete control); settings: 50 g ai/ha, scale 0 (no control) to 100 (complete control); for pest or weed control at 50 g/ha: Echinochloa crus-galli
In short: as §2

cocklebur [15] = experiment: as above; parameters: key to Soil treatment herbicidal activity, Cocklebur: 0 (no control); 100 (complete control); settings: 50 g ai/ha, scale 0 (no control) to 100 (complete control); for pest or weed control at 50 g/ha: Xanthium strumarium
In short: as §2

fall panicum [16] = experiment: Herbicidal activity test against upland field weeds (foliar treatment test); settings: Panicum dichotomiflorum, 50 g ai/ha, scale 0-100
In short: as §1

Compound: Cn1nnc(CSCc2nc(C(F)(F)F)ccc2C(=O)N(C(=O)c2ccccc2)c2nnnn2C)n1 [Compound No. 2-109, N-benzoyl-N-(1-methyl-1H-tetrazol-5-yl)-2-((((2-methyl-2H-tetrazol-5-yl)methyl)thio)methyl)-6-(trifluoromethyl)nicotinamide]
- Foliar treatment herbicidal activity, Cocklebur (cocklebur [1]): 100
- Soil treatment herbicidal activity, Crabgrass (crabgrass [2]): 0
- Soil treatment herbicidal activity, Fall panicum (fall panicum [3]): 0
- Soil treatment herbicidal activity, Sorghum (sorghum [4]): 0
- pest or weed control at 50 g/ha (velvetleaf [5]): 80%
- plant injury at 50 g/ha (sorghum [6]): 80%
- Foliar treatment herbicidal activity, quack grass (quack grass): 0
- Foliar treatment herbicidal activity, barnyard grass (barnyard grass [7]): 100
- pest or weed control at 50 g/ha (bindweed [8]): 98%
- Soil treatment herbicidal activity, Bindweed (bindweed [9]): 0
- Foliar treatment herbicidal activity, Crabgrass (crabgrass [10]): 100
- Soil treatment herbicidal activity, Indian jointvetch (indian jointvetch [11]): 0
- Soil treatment herbicidal activity, velvet leaf (velvetleaf [12]): 100
- pest or weed control at 50 g/ha (indian jointvetch [13]): 98%
- Soil treatment herbicidal activity, barnyard grass (barnyard grass [14]): 0
- Soil treatment herbicidal activity, Cocklebur (cocklebur [15]): 0
- pest or weed control at 50 g/ha (fall panicum [16]): 95%

Compound: CON(Cc1nnn(C)n1)c1nc(C(F)(F)F)ccc1C(=O)Nc1nnnn1C [Compound No. 2-30, 2-(methoxy((2-methyl-2H-tetrazol-5-yl)methyl)amino)-N-(1-methyl-1H-tetrazol-5-yl)-6-(trifluoromethyl)nicotinamide]
- pest or weed control at 50 g/ha (cocklebur [1]): 98%
- Soil treatment herbicidal activity, Crabgrass (crabgrass [2]): 100
- Soil treatment herbicidal activity, Fall panicum (fall panicum [3]): 100
- plant injury at 50 g/ha (sorghum [4]): 50%
- Foliar treatment herbicidal activity, velvet leaf (velvetleaf [5]; scale 0-100): 100
- plant injury at 50 g/ha (sorghum [6]): 20%
- Foliar treatment herbicidal activity, quack grass (quack grass): 0
- pest or weed control at 50 g/ha (barnyard grass [7]): 95%
- pest or weed control at 50 g/ha (bindweed [8]): 60%
- pest or weed control at 50 g/ha (bindweed [9]): 70%
- pest or weed control at 50 g/ha (crabgrass [10]): 95%
- Soil treatment herbicidal activity, Indian jointvetch (indian jointvetch [11]): 100
- Soil treatment herbicidal activity, velvet leaf (velvetleaf [12]): 100
- Foliar treatment herbicidal activity, Indian jointvetch (indian jointvetch [13]): 100
- Soil treatment herbicidal activity, barnyard grass (barnyard grass [14]): 100
- pest or weed control at 50 g/ha (cocklebur [15]): 90%
- pest or weed control at 50 g/ha (fall panicum [16]): 60%

Compound: Cn1nnc(CS(=O)(=O)Cc2nc(C(F)(F)F)ccc2C(=O)Nc2nnnn2C)n1 [Compound No. 2-105, N-(1-methyl-1H-tetrazol-5-yl)-2-((((2-methyl-2H-tetrazol-5-yl)methyl)sulfonyl)methyl)-6-(trifluoromethyl)nicotinamide]
- pest or weed control at 50 g/ha (cocklebur [1]): 98%
- Soil treatment herbicidal activity, Crabgrass (crabgrass [2]): 0
- Soil treatment herbicidal activity, Fall panicum (fall panicum [3]): 0
- Soil treatment herbicidal activity, Sorghum (sorghum [4]): 0
- pest or weed control at 50 g/ha (velvetleaf [5]): 90%
- plant injury at 50 g/ha (sorghum [6]): 20%
- Foliar treatment herbicidal activity, quack grass (quack grass): 0
- Foliar treatment herbicidal activity, barnyard grass (barnyard grass [7]): 0
- pest or weed control at 50 g/ha (bindweed [8]): 80%
- pest or weed control at 50 g/ha (bindweed [9]): 30%
- pest or weed control at 50 g/ha (crabgrass [10]): 30%
- pest or weed control at 50 g/ha (indian jointvetch [11]): 90%
- Soil treatment herbicidal activity, velvet leaf (velvetleaf [12]): 100
- pest or weed control at 50 g/ha (indian jointvetch [13]): 95%
- Soil treatment herbicidal activity, barnyard grass (barnyard grass [14]): 0
- pest or weed control at 50 g/ha (cocklebur [15]): 98%
- pest or weed control at 50 g/ha (fall panicum [16]): 50%

Compound: Cn1nnnc1COc1nc(C(F)(F)F)ccc1C(=S)Nc1nnnn1C [Compound No. 1-43, N-(1-methyl-1H-tetrazol-5-yl)-2-((1-methyl-1H-tetrazol-5-yl)methoxy)-6-(trifluoromethyl)pyridin-3-carbothioamide]
- pest or weed control at 50 g/ha (cocklebur [1]): 90%
- pest or weed control at 50 g/ha (crabgrass [2]): 20%
- Soil treatment herbicidal activity, Fall panicum (fall panicum [3]): 0
- Soil treatment herbicidal activity, Sorghum (sorghum [4]): 0
- pest or weed control at 50 g/ha (velvetleaf [5]): 90%
- plant injury at 50 g/ha (sorghum [6]): 60%
- pest or weed control at 50 g/ha (quack grass): 30%
- pest or weed control at 50 g/ha (barnyard grass [7]): 95%
- pest or weed control at 50 g/ha (bindweed [8]): 70%
- Soil treatment herbicidal activity, Bindweed (bindweed [9]): 0
- pest or weed control at 50 g/ha (crabgrass [10]): 95%
- Soil treatment herbicidal activity, Indian jointvetch (indian jointvetch [11]): 0
- pest or weed control at 50 g/ha (velvetleaf [12]; Abutilon theophrasti, read-out: Soil treatment herbicidal activity, velvet leaf): 90%
- pest or weed control at 50 g/ha (indian jointvetch [13]): 30%
- Soil treatment herbicidal activity, barnyard grass (barnyard grass [14]): 0
- Soil treatment herbicidal activity, Cocklebur (cocklebur [15]): 0
- pest or weed control at 50 g/ha (fall panicum [16]): 95%

Compound: Cn1nnc(COCc2nc(C(F)(F)F)ccc2C(=O)N(c2nnnn2C)S(C)(=O)=O)n1 [Compound No. 2-69, N-(1-methyl-1H-tetrazol-5-yl)-2-(((2-methyl-2H-tetrazol-5-yl)methoxy)methyl)-N-(methylsulfonyl)-6-(trifluoromethyl)nicotinamide]
- pest or weed control at 50 g/ha (cocklebur [1]): 95%
- pest or weed control at 50 g/ha (crabgrass [2]): 98%
- pest or weed control at 50 g/ha (fall panicum [3]): 98%
- plant injury at 50 g/ha (sorghum [4]): 70%
- pest or weed control at 50 g/ha (velvetleaf [5]): 80%
- plant injury at 50 g/ha (sorghum [6]): 40%
- Foliar treatment herbicidal activity, quack grass (quack grass): 0
- pest or weed control at 50 g/ha (barnyard grass [7]): 70%
- pest or weed control at 50 g/ha (bindweed [8]): 40%
- pest or weed control at 50 g/ha (bindweed [9]): 70%
- pest or weed control at 50 g/ha (crabgrass [10]): 70%
- Soil treatment herbicidal activity, Indian jointvetch (indian jointvetch [11]): 100
- Soil treatment herbicidal activity, velvet leaf (velvetleaf [12]): 100
- pest or weed control at 50 g/ha (indian jointvetch [13]): 80%
- pest or weed control at 50 g/ha (barnyard grass [14]): 100%
- Soil treatment herbicidal activity, Cocklebur (cocklebur [15]): 0
- pest or weed control at 50 g/ha (fall panicum [16]): 60%

Compound: Cn1nnc(COCc2nc(C(F)F)ccc2C(=O)Nc2nnnn2C)n1 [Compound No. 2-84, 6-(difluoromethyl)-N-(1-methyl-1H-tetrazol-5-yl)-2-(((2-methyl-2H-tetrazol-5-yl)methoxy)methyl)nicotinamide]
- pest or weed control at 50 g/ha (cocklebur [1]): 95%
- pest or weed control at 50 g/ha (crabgrass [2]): 80%
- pest or weed control at 50 g/ha (fall panicum [3]): 20%
- plant injury at 50 g/ha (sorghum [4]): 20%
- pest or weed control at 50 g/ha (velvetleaf [5]): 98%
- plant injury at 50 g/ha (sorghum [6]): 90%
- Foliar treatment herbicidal activity, quack grass (quack grass): 0
- pest or weed control at 50 g/ha (barnyard grass [7]): 95%
- pest or weed control at 50 g/ha (bindweed [8]): 60%
- pest or weed control at 50 g/ha (bindweed [9]): 40%
- pest or weed control at 50 g/ha (crabgrass [10]): 95%
- pest or weed control at 50 g/ha (indian jointvetch [11]): 98%
- Soil treatment herbicidal activity, velvet leaf (velvetleaf [12]): 100
- pest or weed control at 50 g/ha (indian jointvetch [13]): 70%
- pest or weed control at 50 g/ha (barnyard grass [14]): 70%
- Soil treatment herbicidal activity, Cocklebur (cocklebur [15]): 0
- pest or weed control at 50 g/ha (fall panicum [16]): 90%

Compound: Cn1nnc(COc2nc(C(F)(F)F)ccc2C(=O)Nc2nnnn2C)n1 [Compound No. 2-1, N-(1-methyl-1H-tetrazol-5-yl)-2-((2-methyl-2H-tetrazol-5-yl)methoxy)-6-(trifluoromethyl)nicotinamide]
- pest or weed control at 50 g/ha (cocklebur [1]): 60%
- Soil treatment herbicidal activity, Crabgrass (crabgrass [2]): 0
- Soil treatment herbicidal activity, Fall panicum (fall panicum [3]): 0
- Soil treatment herbicidal activity, Sorghum (sorghum [4]): 0
- pest or weed control at 50 g/ha (velvetleaf [5]): 30%
- Foliar treatment herbicidal activity, Sorghum (sorghum [6]): 0
- Foliar treatment herbicidal activity, quack grass (quack grass): 0
- pest or weed control at 50 g/ha (barnyard grass [7]): 98%
- pest or weed control at 50 g/ha (bindweed [8]): 60%
- Soil treatment herbicidal activity, Bindweed (bindweed [9]): 0
- pest or weed control at 50 g/ha (crabgrass [10]): 95%
- Soil treatment herbicidal activity, Indian jointvetch (indian jointvetch [11]): 0
- Soil treatment herbicidal activity, velvet leaf (velvetleaf [12]): 0
- pest or weed control at 50 g/ha (indian jointvetch [13]): 60%
- Soil treatment herbicidal activity, barnyard grass (barnyard grass [14]): 0
- Soil treatment herbicidal activity, Cocklebur (cocklebur [15]): 0
- pest or weed control at 50 g/ha (fall panicum [16]): 70%

Source: patent publication US12495798B2, “Nicotinamide compound and herbicidal composition comprising compound” (KOREA RESEARCH INSTITUTE OF CHEMICAL TECHNOLOGY, priority 2019, dated 2025)
